Assay results: patent US8236984B2, “Compound and use thereof in the treatment of amyloidosis” (Pentraxin Therapeutics Ltd., priority 2007, dated 2012)
pIC50: −log10 of the molar value. Entries after “also recorded” stand apart in the source; their conditions may differ.

Columns and labels:
[1] = target: T1, transthyretin (Homo sapiens, UniProt P02766); experiment: Intrinsic fluorescence quenching of transthyretin by ligand titration; assay type: binding; conditions: 1 μM transthyretin, PBS pH 7.4, ligand 0-2 μM, excitation 280 nm, 20° C.
T1 construct: Native tetrameric transthyretin was purified from fractionated human plasma; from tissue; host or cells: human plasma
Procedure: 3.2.1. Binding of 4ajm15 and mds84 by transthyretin. The interactions between the ligands 4ajm15 or mds84 and transthyretin were studied by monitoring intrinsic fluorescence in the emission range 300-500 nm on excitation at 280 nm using a Perkin Elmer LS55 fluorimeter and a standard 1 cm path length quartz cell at 20° C. Quenching of tryptophan was achieved by titrating 1 μM transthyretin in PBS, pH 7.4 with increasing concentrations of each ligand in the range 0-2 μM (FIG. 2A). […] At the same time the changes in 4ajm15 fluorescence upon binding to the protein were monitored in the emission range 400-600 nm and excitation at 340 nm that is the wavelength specific for 4ajm15 excitation. In these conditions, accumulation of the spectra highlights an isosbestic point at 483 nm (FIG. 2B). The same results were achieved by using mds84 (not shown). The results of the titration of 4ajm15 in presence and absence of transthyretin support a model of binding in which both the binding sites are simultaneously occupied by the palindromic ligand.
In each case increasing concentrations of ligand (0-2 μM) were added to 1 μM protein. The arrow in FIG. 2B indicates the isosbestic point at 483 nm occurring on formation of the protein ligand complex. […] The percent quenching represents ΔF/F0 where F0 is fluorescence intensity prior to the addition of ligands and AF is the decrease in fluorescence at a given ligand concentration.

[2] = target: T2, L55P variant transthyretin (Homo sapiens, UniProt P02766, L75P); experiment: Inhibition of transthyretin aggregation at acidic pH (turbidity at 400 nm); assay type: biochemical
Procedure: (§1) 3.3.2 Inhibition of transthyretin aggregation by 4ajm15: In pilot experiments, transthyretin aggregates were formed from wild type transthyretin (3.6 μM) after incubation at acidic pH for 3 d at 37° C. (Colon and Kelly, 1992). The efficacy of 4ajm15 as an inhibitor of transthyretin aggregate formation was then compared with other transthyretin ligand compounds. […] After 30 min at 37° C., the pH was adjusted to pH 4.4 (with 0.2 M sodium acetate buffer pH 4.0), and the ˜1 ml mixtures were incubated unstirred for 3 d at 37° C.
(§2) Using the same method the activities of mds84 and 4ajm15 as inhibitors of the aggregation of both wild type transthyretin and the most aggressively aggregating transthyretin variant, L55P, were evaluated in triplicate with both proteins at 3.6 μM and with one (3.6 μM) or 3 equivalents (10.8 μM) of each ligand. Wild type transthyretin was studied at pH 4.4 and L55P at pH 5.0. […] Mean values and standard deviations are shown in Table 2 and in FIG. 4, where results with 1:1 molar ratio are shown cross hatched and 3:1 molar ratio in open bars.

[3] = target: T3, wild type transthyretin (Homo sapiens, UniProt P02766); experiment: as above; assay type: biochemical; design: isolated from pooled normal human plasma, was obtained from Scipac; purchased Scipac Ltd, Sittingbourne, Kent, UK; host or cells: pooled normal human plasma; conditions: pH 4.4, 3 d 37° C.
Procedure: 3.3.1 Wild type transthyretin. The purified wild type transthyretin (liquid and lyophilised) used in these experiments, isolated from pooled normal human plasma, was obtained from Scipac, (Sittingbourne, Kent, UK). Protein concentration was determined by absorbance at 280 nm after correction for light scattering at 320 nm using the absorption coefficient E1 cm^1%=14.0. […] Nano electrospray ionisation mass spectrometry confirmed the presence of normal and cysteinylated transthyretin monomers (Terazaki et al, 1998) under denaturing conditions, and solvent-bound transthyretin tetramer (Nettleton et al, 1998) under mild desolvation conditions.
as §1, §2

[4] = target: T3, wild type transthyretin; experiment: Displacement of 125I-T4 from transthyretin in whole serum; assay type: binding; conditions: mean
Description: 3.2.3.2. Quantitative studies in serum. […] The immunoprecipitate was recovered by centrifugation, washed twice with 0.1 M Tris, 0.1 M NaCl, pH 8.0 and counted.

[5] = target: T2, L55P variant transthyretin; experiment: Mass spectrometric analysis of subunit exchange; assay type: biochemical; design: made in house; conditions: for subunit exchange of L55P transthyretin: in words
Procedure: 4.2 Mass spectrometric analysis of subunit exchange. Recombinant wild type, L55P and V30M transthyretin variants were biosynthetically labelled with isotopes [^15N] and [^15N, ^13C] as previously described (Keetch C A et al, 2005). Immediately prior to analysis, proteins were buffer exchanged into 20 mM ammonium acetate, pH 7.0 using Micro Biospin columns (Bio-Rad, UK). The subunit composition of transthyretin was monitored as a function of time by incubating an equimolar solution (4.4 μM) of [^15N] and [^15N, ^13C] labelled proteins in the presence of 2-fold molar excess of 4ajm15 in DMSO or 2.5% DMSO alone as a control. Each experiment was carried out in triplicate at room temperature and at 4° C. as well, since it is known that subunit exchange is accelerated at low temperatures. Nanoflow ESMS was performed on a QToF2 instrument (Waters/Micromass UK, Ltd.) modified for high mass operation (Sobott et al, (2002)) and calibrated externally using caesium iodide (100 mg/ml). Each solution, 1.5 μl, was electrosprayed from gold coated borosilicate capillaries prepared in-house as described (Nettleton E J, et al, 1998). To preserve the non-covalent interactions in the transthyretin tetramer, the MS parameters applied were: capillary voltage 1.6 kV, sample cone 160 V, extractor cone 20 V, ion transfer stage pressure 7.0×10 ^−3 mbar, quadrupole analyzer pressure 9.5×10^−4 mbar and ToF analyzer pressure 1.7×10^−6 mbar. Data were processed with MassLynx software (Waters/Micromass UK, Ltd.) and are presented with minimal smoothing and without background subtraction.
This most unstable transthyretin variant rapidly undergoes spontaneous and extensive subunit exchange, as illustrated in FIG. 8. FIGS. 9-11 show the effects of decreasing molar ratios of mds84 on inhibition of subunit exchange. […] At lower molar ratios of mds84 some exchange takes place but the transthyretin molecules which bind mds84 are still completely stabilized.

Row | intrinsic fluorescence of transthyretin remaining after titration [1] [%] | Aggregation of transthyretin, Mean (1:1) ([2]; L55P 3.6 μM, ligand 3.6 μM, pH 5.0) | Aggregation of transthyretin, Mean (3:1) ([2]; L55P 3.6 μM, ligand 10.8 μM, pH 5.0) | Aggregation of transthyretin, Mean (1:1) ([3]; wild type 3.6 μM, ligand 3.6 μM) | Aggregation of transthyretin, Mean (3:1) ([3]; wild type 3.6 μM, ligand 10.8 μM) | pIC50 [4] | ligand bound per mole of transthyretin for complete stabilization ([5]; L55P variant, decreasing molar ratios of ligand) | subunit exchange of L55P transthyretin [5] | aggregation of L55P in the presence of ligand ([2]; L55P, pH 5.0, results not shown, in words) | Compound | transthyretin aggregate formation in the presence of ligand ([3]; wild type, in words)
1 | 40 | 17 per cent of control with DMSO alone | 9.9 per cent of control with DMSO alone | 1.7 per cent of control with DMSO alone | 2 per cent of control with DMSO alone | 4.93 | one mole | completely inhibits all subunit exchange |  | O=C(O)c1ccccc1Nc1cc(Cl)c(OCCCCCCCOc2c(Cl)cc(Nc3ccccc3C(=O)O)cc2Cl)c(Cl)c1 [mds84, 2,2′-(4,4′-(heptane-1,7-diylbis(oxy))bis(3,5-dichloro-4,1-phenylene))bis(azanediyl)dibenzoic acid] | 
2 | 40 |  |  |  |  | 4.57 |  | Exactly the same effect | identical to those with mds84 | O=C(O)c1ccccc1Nc1cc(Cl)c(OCCCCCCCCCCCOc2c(Cl)cc(Nc3ccccc3C(=O)O)cc2Cl)c(Cl)c1 [4ajm15, 2,2′-(4,4′-(undecane-1,11-diylbis(oxy))bis(3,5-dichloro-4,1-phenylene))bis(azanediyl)dibenzoic acid] | dramatically reduced; also recorded: identical to those with mds84
